Experimental data: patent publication US20090099195A1 (ASTRAZENECA AB, priority 2007, published 2009)

Molecular target: T1, hP2X3 (human Purinergic P2X receptors subtype 3), clone B (Homo sapiens, UniProt P56373)
T1 sequence (P56373 1-397): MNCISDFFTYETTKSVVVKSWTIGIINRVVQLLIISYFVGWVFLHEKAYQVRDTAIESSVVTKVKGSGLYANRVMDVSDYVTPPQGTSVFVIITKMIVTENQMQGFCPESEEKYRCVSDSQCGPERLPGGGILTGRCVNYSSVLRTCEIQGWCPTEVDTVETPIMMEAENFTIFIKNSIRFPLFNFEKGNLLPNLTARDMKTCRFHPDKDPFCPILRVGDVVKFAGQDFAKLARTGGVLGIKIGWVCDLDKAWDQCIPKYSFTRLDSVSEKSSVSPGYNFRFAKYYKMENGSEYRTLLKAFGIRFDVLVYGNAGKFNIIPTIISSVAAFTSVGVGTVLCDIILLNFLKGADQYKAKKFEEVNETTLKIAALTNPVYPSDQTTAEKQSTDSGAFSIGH
Test: hP2X3 FLIPR calcium (Fluo-4) antagonist assay, clone B
Settings: Human P2X3 FLIPR Clone B IC50 (nM), RLE cells expressing hP2X3 clone B (NM_002559); agonist 500 nM α,β-methylene-ATP

| IC50 [nM] | Compound |
| --- | --- |
| 5400 | CCOc1ccccc1[C@@H](C)Nc1nc(N2CCN(C(C)=O)CC2)nc2c1CN(C(C)C)C2=O [Example 173, (R)-2-(4-acetylpiperazin-1-yl)-4-(1-(2-ethoxyphenyl)ethylamino)-6-isopropyl-5H-pyrrolo[3,4-d]pyrimidin-7(6H)-one] |
| 600 | CCOc1cc([C@@H](C)Nc2nc(N3CCN(C(C)=O)CC3)nc3c2CN(C(C)C)C3=O)ccc1C [Example 174, (R)-2-(4-acetylpiperazin-1-yl)-4-(1-(3-ethoxy-4-methylphenyl)ethylamino)-6-isopropyl-5H-pyrrolo[3,4-d]pyrimidin-7(6H)-one] |
| 80 | CC(=O)N1CCN(c2nc(N[C@H](C)c3ccc(OC(C)C)cc3)c3c(n2)C(=O)N(C(C)C)C3)CC1 [Example 176, (R)-2-(4-acetylpiperazin-1-yl)-4-(1-(4-isopropoxyphenyl)ethylamino)-6-isopropyl-5H-pyrrolo[3,4-d]pyrimidin-7(6H)-one] |
| 18000 | COc1ccccc1CC(C)(C)Nc1nc(N2CCN(C(C)=O)CC2)nc2c1CN(C(C)C)C2=O [Example 195, 2-(4-acetylpiperazin-1-yl)-6-isopropyl-4-(1-(2-methoxyphenyl)-2-methylpropan-2-ylamino)-5H-pyrrolo[3,4-d]pyrimidin-7(6H)-one] |
| 1900 | CC(=O)N1CCN(c2nc(NC(C)(C)Cc3ccccc3C)c3c(n2)C(=O)N(C(C)C)C3)CC1 [Example 197, 2-(4-acetylpiperazin-1-yl)-6-isopropyl-4-(2-methyl-1-o-tolylpropan-2-ylamino)-5H-pyrrolo[3,4-d]pyrimidin-7(6H)-one] |
| 5300 | CC(=O)N1CCN(c2nc(NCC3OCCc4ccccc43)c3c(n2)C(=O)N(C(C)C)C3)CC1 (stereo not shown) [Example 205, 2-(4-acetylpiperazin-1-yl)-4-(isochoman-1-ylmethylamino)-6-isopropyl-5H-pyrrolo[3,4-d]pyrimidin-7(6H)-one] |
| 3200 | CC(C)N1Cc2c(NCc3cnc4ccccc4c3)nc(N3CCNC(=O)C3)nc2C1=O [Example 206, 6-isopropyl-2-(3-oxopiperazin-1-yl)-4-(quinolin-3-ylmethylamino)-5H-pyrrolo[3,4-d]pyrimidin-7(6H)-one] |
| 7100 | CC(=O)NC1CCN(c2nc(NCc3cnc4ccccc4c3)c3c(n2)C(=O)N(C(C)C)C3)C1 (stereo not shown) [Example 207, N-(1-(6-isopropyl-7-oxo-4-(quinolin-3-ylmethylamino)-6,7-dihydro-5H-pyrrolo[3,4-d]pyrimidin-2-yl)pyrrolidin-3-yl)acetamide] |
| 2800 | CC(C)N1Cc2c(NCc3cnc4ccccc4c3)nc(N3CCC(C(N)=O)CC3)nc2C1=O [Example 209, 1-(6-isopropyl-7-oxo-4-(quinolin-3-ylmethylamino)-6,7-dihydro-5H-pyrrolo[3,4-d]pyrimidin-2-yl)piperidine-4-carboxamide] |
| 320 | CC(C)N1Cc2c(NCc3cnc4ccccc4c3)nc(N3CCN(C)C(=O)C3)nc2C1=O [Example 210, 6-isopropyl-2-(4-methyl-3-oxopiperazin-1-yl)-4-(quinolin-3-ylmethylamino)-5H-pyrrolo[3,4-d]pyrimidin-7(6H)-one] |
| 5100 | CC(C)N1Cc2c(NCc3cnc4ccccc4c3)nc(N3CCOCC3)nc2C1=O [Example 211, 6-isopropyl-2-morpholino-4-(quinolin-3-ylmethylamino)-5H-pyrrolo[3,4-d]pyrimidin-7(6H)-one] |
| 4600 | CC(C)N1Cc2c(NCc3cnc4ccccc4c3)nc(N3CCCC3CN3CCOCC3)nc2C1=O (stereo not shown) [Example 212, 6-isopropyl-2-[2-(morpholinomethyl)pyrrolidin-1-yl]-4-(3-quinolylmethylamino)-5H-pyrrolo[3,4-d]pyrimidin-7-one] |
| 1100 | CC(C)N1Cc2c(NCc3cnc4ccccc4c3)nc(N3CCC(N(C)C)C3)nc2C1=O (stereo not shown) [Example 213, 2-(3-dimethylaminopyrrolidin-1-yl)-6-isopropyl-4-(3-quinolylmethylamino)-5H-pyrrolo[3,4-d]pyrimidin-7-one] |
| 2000 | CC(C)N1Cc2c(NCc3cnc4ccccc4c3)nc(NCCS(C)(=O)=O)nc2C1=O [Example 215, 6-isopropyl-2-(2-methylsulfonylethylamino)-4-(3-quinolylmethylamino)-5H-pyrrolo[3,4-d]pyrimidin-7-one] |
| 680 | CC(C)N1Cc2c(NCc3cnc4ccccc4c3)nc(N3CCC(F)(F)C3)nc2C1=O [Example 216, 2-(3,3-difluoropyrrolidin-1-yl)-6-isopropyl-4-(3-quinolymethylamino)-5H-pyrrolo[3,4-d]pyrimidin-7-one] |
| 5900 | CC(C)N1Cc2c(NCc3cnc4ccccc4c3)nc(N(C)CC3CCCO3)nc2C1=O (stereo not shown) [Example 217, 6-isopropyl-2-(methyl-(tetrahydrofuran-2-ylmethyl)amino)-4-(3-quinolylmethylamino)-5H-pyrrolo[3,4-d]pyrimidin-7-one] |
| 7800 | CC(C)N1Cc2c(NCc3cnc4ccccc4c3)nc(N3CCC(N(C)C)CC3)nc2C1=O [Example 218] |
| 8400 | CC(C)N1Cc2c(NCc3cnc4ccccc4c3)nc(NCC3CCOCC3)nc2C1=O [Example 219, 6-(1-methylethyl)-4-[(quinolin-3-ylmethyl)amino]-2-[(tetrahydro-2H-pyran-4-ylmethyl)amino]-5,6-dihydro-7H-pyrrolo[3,4-d]pyrimidin-7-one] |
| 9600 | CC(C)N1Cc2c(NCc3cnc4ccccc4c3)nc(N(C)C)nc2C1=O [Example 220, 2-(dimethylamino)-6-(1-methylethyl)-4-[(quinolin-3-ylmethyl)amino]-5,6-dihydro-7H-pyrrolo[3,4-d]pyrimidin-7-one] |
| 5800 | CC(C)N1Cc2c(NCc3cnc4ccccc4c3)nc(N3CCN(C(=O)N(C)C)CC3)nc2C1=O [Example 221, N,N-dimethyl-4-{6-(1-methylethyl)-7-oxo-4-[(quinolin-3-ylmethyl)amino]-6,7-dihydro-5H-pyrrolo[3,4-d]pyrimidin-2-yl}piperazine-1-carboxamide] |
| 6300 | CC(C)N1Cc2c(NCc3cnc4ccccc4c3)nc(N3CCN(C(=O)C4CC4)CC3)nc2C1=O [Example 222, 2-[4-(cyclopropylcarbonyl)piperazin-1-yl]-6-(1-methylethyl)-4-[(quinolin-3-ylmethyl)amino]-5,6-dihydro-7H-pyrrolo[3,4-d]pyrimidin-7-one] |
| 620 | CCN1CCN(c2cc(C(F)(F)F)ccc2CNc2nc(N3CCN(C(C)=O)CC3)nc3c2CN(C(C)C)C3=O)CC1 [Example 223, 2-(4-acetylpiperazin-1-yl)-4-(2-(4-ethylpiperazin-1-yl)-4-(trifluoromethyl)benzylamino)-6-isopropyl-5H-pyrrolo[3,4-d]pyrimidin-7(6H)-one] |
| 4100 | CC(=O)N1CCN(c2nc(NC3CCN(c4cccc(C)c4)C3)c3c(n2)C(=O)N(C(C)C)C3)CC1 (stereo not shown) [Example 224, 2-(4-acetylpiperazin-1-yl)-6-isopropyl-4-(1-m-tolylpyrrolidin-3-ylamino)-5H-pyrrolo[3,4-d]pyrimidin-7(6H)-one] |
| 4400 | CC(=O)N1CCN(c2nc(N[C@H](C)c3ccccc3C(F)(F)F)c3c(n2)C(=O)N(C(C)C)C3)CC1 [Example 226, (R)-2-(4-acetylpiperazin-1-yl)-6-isopropyl-4-(1-(2-(trifluoromethyl)phenyl)ethylamino)-5H-pyrrolo[3,4-d]pyrimidin-7(6H)-one] |
| 8500 | COc1cccc([C@@H](C)Nc2nc(N3CCN(C(C)=O)CC3)nc3c2CN(C(C)C)C3=O)c1 [Example 227, (R)-2-(4-acetylpiperazin-1-yl)-6-isopropyl-4-(1-(3-methoxyphenyl)ethylamino)-5H-pyrrolo[3,4-d]pyrimidin-7(6H)-one] |
| 8800 | CC(=O)N1CCN(c2nc(NCc3ccc(-c4ccccc4)nc3)c3c(n2)C(=O)N(C(C)C)C3)CC1 [Example 228, 2-(4-acetylpiperazin-1-yl)-6-isopropyl-4-((6-phenylpyridin-3-yl)methylamino)-5H-pyrrolo[3,4-d]pyrimidin-7(6H)-one] |
| 1100 | CC(=O)N1CCN(c2nc(N[C@@H](C)c3cnc4ccccc4c3)c3c(n2)C(=O)N(C(C)C)C3)CC1 [Example 234, (S)-2-(4-acetylpiperazin-1-yl)-6-isopropyl-4-(1-(quinolin-3-yl)ethylamino)-5H-pyrrolo[3,4-d]pyrimidin-7(6H)-one] |
| 500 | CC(=O)N1CCN(c2nc(NCc3cc4ccccc4n3C)c3c(n2)C(=O)N(C(C)C)C3)CC1 [Example 237, 2-(4-acetylpiperazin-1-yl)-6-isopropyl-4-((1-methyl-1H-indol-2-yl)methylamino)-5H-pyrrolo[3,4-d]pyrimidin-7(6H)-one] |
| 1200 | CC(=O)N1CCN(c2nc3c(c(N(C)Cc4ccc5ncccc5c4)n2)CN(C(C)C)C3=O)CC1 [Example 239, 2-(4-acetylpiperazin-1-yl)-6-isopropyl-4-(methyl(quinolin-6-ylmethyl)amino)-5H-pyrrolo[3,4-d]pyrimidin-7(6H)-one] |
| 1500 | COc1ccc(CNc2nc(N3CCN(C(C)=O)CC3)nc3c2CN(C(C)C)C3=O)c2cccnc12 [Example 240, 2-(4-acetylpiperazin-1-yl)-6-isopropyl-4-((8-methoxyquinolin-5-yl)methylamino)-5H-pyrrolo[3,4-d]pyrimidin-7(6H)-one] |

| Compound | IC50 [nM] |
| --- | --- |
| CC(C)N1Cc2c(NCc3cnc4ccccc4c3)nc(NC3CN4CCC3CC4)nc2C1=O (stereo not shown) [Example 214, 6-isopropyl-4-(3-quinolylmethylamino)-2-(quinuclidin-3-ylamino)-5H-pyrrolo[3,4-d]pyrimidin-7-one] | 2300 |
